Read-outs that look alike come from different tables or passages of the source.
Legend:
[1] = system: Human parainfluenza virus type 3 (HPIV-3); assay: Antiviral activity assay (0.1–1000 µM), IC50; type: cell-based
Procedure: (§1) Antiviral properties of compounds 1e–1g, 1e[PF6], 8a–8d, and 9a were assessed against five viruses: Human herpesvirus 1 (HSV-1, VR-539), Human parainfluenza virus type 3 (HPIV-3, VR-93), Human adenovirus 5 (AdV5, VR-5), Human herpesvirus 5 (HCMV, VR-977), and Encephalomyocarditis virus (EMCV, VR-1479). Viruses were purchased from the American Type Culture Collection (ATCC, Manassas, VA, USA).
(§2) All tested compounds were dissolved in DMSO (dimethyl sulfoxide, Sigma-Aldrich, Darmstadt, Germany) and then suspended in Minimum Essential Medium (MEM; Sigma-Aldrich, Darmstadt, Germany) supplemented with 2% heat-inactivated fetal bovine serum (FBS; Sigma-Aldrich, Darmstadt, Germany), 2 mM L-glutamine (Sigma-Aldrich, Darmstadt, Germany), and 100 units/mL penicillin G with […] streptomycin (Sigma-Aldrich, Darmstadt, Germany).
(§3) Investigated cells were propagated in Minimum Essential Medium (MEM; Sigma-Aldrich, Darmstadt, Germany) supplemented with 10% heat-inactivated fetal bovine serum (FBS; Sigma-Aldrich, Darmstadt, Germany) and 100 units/mL penicillin G with […] streptomycin (Sigma-Aldrich, Darmstadt, Germany). After reaching 80–90% confluency, cells were harvested with trypsin (Life Technologies, Warsaw, Poland) and seeded into 96-well microplates at 2 × 10^5 cells/mL after overnight incubation of cells at 37 °C in a humidified atmosphere containing 5% CO2.
(§4) The culture medium was removed from confluent cells grown in 96-well microplates, and the cells were inoculated with virus solutions in MEM supplemented with 2% FBS and antibiotics (HSV-1 MOI 0.005, 1000 virions/mL; HPIV-3 MOI 0.01, 2000 virions/mL; AdV5 MOI 0.005, 1000 virions/mL; EMCV 0.005, 1000 virions/mL; HCMV 20 PFU/well (plaque-forming units per well). After a 1-h (HSV-1, HPIV-3, AdV5, and EMCV) or 2-h adsorption period (HCMV), residual viral particles were removed, and infected cells were further incubated with MEM supplemented with 2% FBS containing compound concentrations in the range from 0.1 to 1000 µM [38]. All experiments were carried out in triplicate. The cell monolayers were incubated with the investigated compounds at 37 °C in a humidified atmosphere containing 5% CO2 until a cytopathic effect (CPE) was visible. Viral infection was evaluated by the MTT assay (as described previously) or plaque reduction assay. HCMV plaques were counted under an inverted microscope, Olympus IX73 (Olympus, Tokyo, Japan). Antiviral activity was expressed as the concentration required to reduce the number of viral plaques to 50% of the control (virus-infected but untreated).

LLC-MK2 cells [2] = assay: Cytotoxicity MTT assay (0.1–1000 µM), CC50; type: cell-based, Macaca mulatta
[3] = Cytotoxicity MTT assay (0.1–1000 µM), CC50; type: cell-based, Macaca mulatta; settings: Macaca mulatta, LLC-MK2 cells, LLC-MK2, MTT, 48 h; read-out: CC50 Normal Cell Lines LLC-MK2
[4] = Cytotoxicity screening at 10 µM (MTT); type: cell-based, Mus musculus; settings: Mus musculus, NCTC clone 929 cells, read-out: Cell line (viability %) NCTC clone 929
[5] = Cytotoxicity screening at 10 µM (MTT); type: cell-based, Human; settings: human, HeLa cells, read-out: Cell line (viability %) HeLa
[6] = system: Human adenovirus 5 (AdV5); assay: Antiviral screening at 10 µM; type: cell-based; settings: Human mastadenovirus C, AdV5-infected cells, read-out: Cell line (viability %) AdV5
Procedure: as §1, with “1a, 1c, 1a[PF6], 1c[PF6], 9b[PF6], 9c[PF6], 10a–10d, 2a,” for “1e–1g, 1e[PF6], 8a–8d,”, “2b” for “9a”
as §2
(§5) Vero, LLC-MK2, NCTC clone 929, MRC-5, and HeLa cells were propagated in Minimum Essential Medium (MEM; Sigma-Aldrich, Darmstadt, Germany) supplemented with 10% heat-inactivated fetal bovine serum (FBS; Sigma-Aldrich, Darmstadt, Germany) and 100 units/mL penicillin G with […] streptomycin (Sigma-Aldrich, Darmstadt, Germany). Upon reaching 80–90% confluency, cells were harvested with 0.25% trypsin in 1 mM EDTA (Life Technologies, Warsaw, Poland) and seeded onto 96-well microplates at 2 × 10^5 cells/mL. After overnight incubation of cells at 37 °C in a humidified atmosphere containing 5% CO2, the culture medium was removed, and cells were inoculated with the respective virus solution in MEM supplemented with 2% FBS and antibiotics (HSV-1 MOI 0.005, 1000 virions/mL; HPIV-3 MOI 0.01, 2000 virions/mL; AdV5 MOI 0.005, 1000 virions/mL, EMCV MOI 0.005, 1000 virions/mL, HCMV 20 PFU (plaque forming units) per well). After a 1-h (HSV-1, HPIV-3, AdV5, and EMCV) or 2-h adsorption period (HCMV), the residual virus was removed, and the infected cells were further incubated with a 100 μL freshly prepared solution of tested compounds diluted with a maintenance medium supplemented with 2% FBS to obtain compound concentrations of 10 µM. The final concentration of DMSO in the medium was 0.1%. All experiments were carried out in triplicate. The cells monolayers were incubated with the compounds at 37 °C in a humidified atmosphere containing 5% CO2 until the typical cytopathic effect (CPE) was visible. Viral infection was evaluated by the MTT assay or plaque reduction assay (HCMV). After incubation with drugs, the cells were treated with 3-(4,5-dimethylthiazol-2-yl)-2,5-diphenyltetrazolium bromide dye solution (MTT, Sigma-Aldrich, Darmstadt, Germany) (25 μL, 5 mg/mL) for 2 h and lysed with solvent solution (100 μL) containing: DMF (Sigma-Aldrich, Darmstadt, Germany) (45 mL), SDS (Sigma-Aldrich, Darmstadt, Germany) (13.5 g), and distilled water (55 mL). After overnight incubation at 37 °C, the optical density at 550 nm and a reference wavelength of 670 nm were measured on a microplate spectrophotometer, Varioskan Lux (Thermo Fisher Scientific, Waltham, MA, USA). The number of HCMV plaques was counted under an inverted microscope Olympus IX73 (Olympus, Tokyo, Japan).

[7] = system: Human parainfluenza virus type 3 (HPIV-3); assay: Antiviral screening at 10 µM; type: cell-based; settings: Human respirovirus 3, antiviral screening, HPIV-3-infected cells, read-out: Cell line (viability %) HPIV-3
Procedure: as §1, with “1a, 1c, 1a[PF6], 1c[PF6], 9b[PF6], 9c[PF6], 10a–10d, 2a,” for “1e–1g, 1e[PF6], 8a–8d,”, “2b” for “9a”
as §2, §5

[8] = system: Human herpesvirus 1 (HSV-1); assay: Antiviral screening at 10 µM; type: cell-based; settings: Human alphaherpesvirus 1, antiviral screening, HSV-1-infected cells, read-out: Cell line (viability %) HSV-1
Procedure: as §1, with “1a, 1c, 1a[PF6], 1c[PF6], 9b[PF6], 9c[PF6], 10a–10d, 2a,” for “1e–1g, 1e[PF6], 8a–8d,”, “2b” for “9a”
as §2, §5

[9] = system: Encephalomyocarditis virus (EMCV); assay: Antiviral screening at 10 µM; type: cell-based; settings: Cardiovirus A, EMCV-infected cells, read-out: Cell line (viability %) EMCV
Procedure: as §1, with “1a, 1c, 1a[PF6], 1c[PF6], 9b[PF6], 9c[PF6], 10a–10d, 2a,” for “1e–1g, 1e[PF6], 8a–8d,”, “2b” for “9a”
as §2, §5

[10] = Cytotoxicity screening at 10 µM (MTT); type: cell-based, Human; settings: human, MRC-5 cells, read-out: Cell line (viability %) MRC-5
[11] = Cytotoxicity screening at 10 µM (MTT); type: cell-based, Cercopithecus aethiops; settings: Cercopithecus aethiops, Vero cells, read-out: Cell line (viability %) Vero
LLC-MK2 cells [12] = assay: Cytotoxicity screening at 10 µM (MTT); type: cell-based, Macaca mulatta; settings: 48 h
Vero cells = assay: Cytotoxicity MTT assay (0.1–1000 µM), CC50; type: cell-based, Cercopithecus aethiops; settings: 48 h
[13] = system: Human adenovirus 5 (AdV5); assay: Antiviral activity assay (0.1–1000 µM), IC50; type: cell-based; settings: Human mastadenovirus C; AdV5, MOI 0.005; read-out: IC50 AdV5
Procedure: as §1, §2, §3, §4

[14] = system: Human herpesvirus 1 (HSV-1); assay: Antiviral activity assay (0.1–1000 µM), IC50; type: cell-based; settings: Human alphaherpesvirus 1; HSV-1, MOI 0.005
Procedure: as §1, §2, §3, §4

[15] = system: Encephalomyocarditis virus (EMCV); assay: Antiviral activity assay (0.1–1000 µM), IC50; type: cell-based; settings: Cardiovirus A, MOI 0.005, read-out: IC50 EMCV
Procedure: as §1, §2, §3, §4

[16] = Cytotoxicity MTT assay (0.1–1000 µM), CC50; type: cell-based, Mus musculus; settings: Mus musculus, NCTC clone 929 cells, NCTC clone 929, MTT, 48 h; read-out: CC50 Normal Cell Lines NCTC Clone 929
HeLa cells = assay: Cytotoxicity MTT assay (0.1–1000 µM), CC50; type: cell-based, Human; settings: MTT, 48 h, read-out: CC50 Cancer Cell Lines HeLa
[17] = system: Human herpesvirus 5 (HCMV); assay: Antiviral activity assay (0.1–1000 µM), IC50, plaque reduction; type: cell-based; settings: Human betaherpesvirus 5, 20 PFU/well
Procedure: as §1, §2, §3, §4

[18] = Cytotoxicity MTT assay (0.1–1000 µM), CC50; type: cell-based, Human; settings: human, A549 cells, read-out: CC50 Cancer Cell Lines A549
MRC-5 cells = assay: Cytotoxicity MTT assay (0.1–1000 µM), CC50; type: cell-based, Human; settings: MRC-5, MTT, 48 h; read-out: CC50 Normal Cell Lines MRC-5
[19] = Cytotoxicity MTT assay (0.1–1000 µM), CC50; type: cell-based, Human; settings: human, HepG2 cells, read-out: CC50 Cancer Cell Lines HepG2
[20] = Cytotoxicity MTT assay (0.1–1000 µM), CC50; type: cell-based, Cercopithecus aethiops; settings: Cercopithecus aethiops, Vero cells, read-out: CC50 Normal Cell Lines Vero
[21] = Cytotoxicity MTT assay (0.1–1000 µM), CC50; type: cell-based, Human; settings: human, HeLa cells, MTT, 48 h, read-out: CC50 Cancer Cell Lines HeLa
[22] = Cytotoxicity MTT assay (0.1–1000 µM), CC50; type: cell-based, Human; settings: human, MRC-5 cells, MRC-5, MTT, read-out: CC50 Normal Cell Lines MRC-5
[23] = Human respirovirus 3, HPIV-3, MOI 0.01, read-out: IC50 HPIV-3

| melting point [°C] | IC50 [13] [µM] | IC50 [1, 23] [M] | IC50 [14] [µM] | IC50 [15] [µM] | IC50 [17] [µM] | Structure (SMILES) | CC50 at 48 h [3] [µM] | CC50 at 48 h [16] [µM] | CC50 at 48 h [18] [µM] | CC50 at 48 h [19] [µM] | also measured |
| --- | --- | --- | --- | --- | --- | --- | --- | --- | --- | --- | --- |
| – | – | – | – | – | – | COc1cccc(Cn2c[n+](Cc3ccccc3)c(C)c2C)c1 [Compound 1c, lepidiline C, reference compound] | < 80 | – | – | – | IC50 ([1]; Table S4, range 0.1-1000 µM, HPIV-3, read-out: IC50 (M) HPIV-3): > 2.83e-05 M; CC50 (LLC-MK2 cells [2]; Table S2, range 0.1-1000 µM, LLC-MK2, read-out: Cell line (CC50 M) LLC-MK2): 28.3 ± 5.86 µM; viability at 48 h, 10 µM [4]: 8.8%; viability at 48 h, 10 µM [5]: 8.9%; viability at 10 µM [6]: 17.9%; viability at 10 µM [7]: 90.4%; viability at 10 µM [8]: 18.6%; viability at 10 µM [9]: 7.7%; viability at 48 h, 10 µM [10]: 76.7%; viability at 48 h, 10 µM [11]: 90.7%; Cell line (viability %) LLC-MK2 (LLC-MK2 cells [12]): 78.4% |
| 190 to 192 | > 0.039 | > 5.35e-05 | > 22.7 | > 79.2 | > 52.7 | Cc1c(C)[n+](Cc2cccc(F)c2)cn1Cc1ccccc1.[Cl-] [Compound 1e, 1-Benzyl-3-(3-fluorobenzyl)-4,5-dimethylimidazolium chloride] | – | 79.2 ± 1.44 | 37.7 ± 3.79 | 423 ± 7.64 | CC50 (Vero cells; read-out: CC50 Normal Cell Lines Vero): 22.7 ± 1.53 µM; CC50 (LLC-MK2 cells [2]; LLC-MK2, MTT, 48 h, read-out: CC50 Normal Cell Lines LLC-MK2): 53.5 ± 2.18 µM; CC50 (HeLa cells): 0.039 ± 0.001 µM; CC50 (MRC-5 cells): 52.7 ± 0.577 µM |
| 120 to 122 | > 0.053 | > 6.62e-05 | > 0.107 | > 30 | > 54.3 | Cc1c(C)[n+](Cc2cccc(C(F)(F)F)c2)cn1Cc1ccccc1.[Cl-] [Compound 1g, 1-Benzyl-4,5-dimethyl-3-[3-(trifluoromethyl)benzyl]imidazolium chloride] | 66.2 ± 2.25 | 30 ± 2 | 10.3 ± 1.04 | 130 ± 5 | CC50 at 48 h [20]: 0.107 ± 0.012 µM; CC50 Normal Cell Lines Vero (Vero cells): toxic; CC50 at 48 h [21]: 0.053 ± 0.006 µM; CC50 at 48 h [22]: 54.3 ± 1.16 µM |
